Like-named read-outs stand apart in the source and are kept apart here.
Key:
[1] = Conversion rate (CR) assay with fluorescamine; assay type: physicochemical; set-up: key to CR: % = 100−100×filtrate/original fluorescence intensity; conditions: conversion rate, fluorescamine assay; for CR / %: Fig. S7 panel B
Description: For ATR FT–IR spectroscopy measurements, 200 µL of the respective 1 mg/mL PNF solution was lyophilized and the resulting powder used for measurement. All spectra were recorded on a Bruker Tensor 27 spectrometer with a diamond crystal as ATR element (PIKE MiracleTM, spectral resolution 2 cm^-1). Every sample was measured with 64 scans. Data were analyzed with OriginLab software and calculation of β–sheet content was conducted according to a previous report. TEM. For TEM measurements 5 µL of PNF fibrils (1 mg/mL) were placed on copper grids coated with carbon and formvar layer (300 mesh, Plano GmbH). After 10 min incubation time, the grids were staining with 4% uranyl acetate solution for 2.5 min and washed with water. Measurements were performed on a Jeol 1400 electron microscope with 120 kV acceleration voltage. CR Assay. For the determination of the amount of peptide monomer converting into nanostructures the amine reactive dye fluorescamine was used analogous to a previous reported protocol. Briefly, 100 µL of the preformed PNF solution was centrifuged in a Vivaspin 500 tube (3 kDa MWCO) to separate fibers from free peptide monomer (16200 x g, 4 °C, 45 min). The filtrate and 100 μL of the non-filtered PNF sample were lyophilized and dissolved in 30 μL DMSO. 10 μL of the filtrate and non-filtered DMSO samples were submitted in a black UV Star® 384 microliter well–plates (Greiner bio–one) and 3 μL of the fluorescamine solution (10 mg/mL, DMSO) was added to measure the fluorescence enhancement. After 20 min of incubation at RT, fluorescence was recorded on an Infinite® M1000 PRO microplate reader (Tecan) at λem = 470 nm upon excitation at λex = 365 nm with 10 nm bandwidths and multiple reads per well (3×3). Measurements were repeated in triplicates and averaged with standard deviation. All values were calculated as n-fold fluorescence enhancement (DMSO only as a reference was set to 1). The conversion rate CR was defined according to the equation Eq. (3).3 CR=100−100×fluorescenceintensityfiltrate/fluorescenceintensityoriginal[%]

[2] = assay type: physicochemical; conditions: for ThT Cat. / ThT-Fluorescence (categorical): ThT-active if fluorescence at least twice the control
Summary of the method: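 Preformed peptide fibrils (1 mg/mL) mixed with 50 µM ThT in PBS, 15 min at RT, fluorescence ex 440/em 488 nm versus PBS blank, triplicates. Zeta potential: peptides at 1 mg/mL in PBS pH 7.4, aged 1 d at RT, diluted in 1 mM KCl, Smoluchowski from electrophoretic mobility.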

[3] = assay type: physicochemical; set-up: key to Fibril / Fibril Formation / TEM 2cat / Fibril: 1 = fibrils present; 0 non-fibrillar structures; conditions: for Fibril / Fibril Formation: 1 mg/mL, uranyl acetate stain, qualitative
[4] = ThT fluorescence category, 1 if Rel. ThT >2
[5] = Fig S10 panel D, fibril category by TEM
[6] = FigS12 panel A, fibril category by TEM
[7] = TEM, 1 = fibrils present, 0 = non-fibrillar
[8] = TEM, 1 = fibrils present, 0 = non-fibrillar structures
[9] = category: fibrils present or non-fibrillar

Row | Substance | CR / % [1] [%] | CR [1] | Tht category (> 2 to blank = +) ([2]; Fig S10 panel D) | ThT Cat. ([2]; Fig S10 panel E) | Tht category (> 2 to blank = +) ([2]; FigS12 panel A) | ThT Cat, ([2]; FigS12 panel B) | ThT Cat, ([2]; ThT category, 1 if Rel. ThT >2) | ThT Cat. [2, 4] | ThT Cat. / ThT-Fluorescence (categorical) [2] | TEM 2cat [3, 5] | Fibril ([3]; Fig S10 panel E) | TEM 2cat [3, 6] | Fibril ([3]; FigS12 panel B, TEM) | Fibril / Fibril Formation ([3]; TEM) | Fibril [3, 7] | Fibril [3, 8] | TEM 2cat [3, 9] | ThT Cat. ([2]; ThT category, 1 if Rel. ThT >2)
1 | CKIKQII | 55 | 55 | 1 (ThT. Cat is 1, if Rel. ThT >2) | 1 (ThT. Cat is 1, if Rel. ThT >2) | 1 (ThT. Cat is 1, if Rel. ThT >2) | 1 (ThT. Cat is 1, if Rel. ThT >2) | 1 (ThT. Cat is 1, if Rel. ThT >2) | 1 (ThT. Cat is 1, if Rel. ThT >2) | 1 (ThT. Cat is 1, if Rel. ThT >2) | 1 | 1 | 1 | 1 | 1 | 1 | 1 |  | 
2 | CKIKQIINMWQ | 50 | 50 | 1 (ThT. Cat is 1, if Rel. ThT >2) | 1 (ThT. Cat is 1, if Rel. ThT >2) |  |  | 1 (ThT. Cat is 1, if Rel. ThT >2) | 1 (ThT. Cat is 1, if Rel. ThT >2) | 1 (ThT. Cat is 1, if Rel. ThT >2) | 1 | 1 |  |  | 1 | 1 | 1 | 1 | 
3 | CKIW | 48.3 | 48.26 | 0 (ThT-inactive (N-Fold <2)) | 0 (ThT-inactive (N-Fold <2)) | 0 (ThT-inactive (N-Fold <2)) | 0 (ThT-inactive (N-Fold <2)) | 0 (ThT-inactive (N-Fold <2)) |  | 0 (ThT-inactive (N-Fold <2)) | 0 | 0 | 0 | 0 | 0 | 0 | 0 |  | 0 (ThT-inactive (N-Fold <2))
4 | CSISIQI | 79.3 | 79.31 | 1 (ThT. Cat is 1, if Rel. ThT >2) | 1 (ThT. Cat is 1, if Rel. ThT >2) | 1 (ThT. Cat is 1, if Rel. ThT >2) | 1 (ThT. Cat is 1, if Rel. ThT >2) | 1 (ThT. Cat is 1, if Rel. ThT >2) | 1 (ThT. Cat is 1, if Rel. ThT >2) | 1 (ThT. Cat is 1, if Rel. ThT >2) | 1 | 1 | 1 | 1 | 1 | 1 | 1 |  | 
5 | CSISIQINM | 86 | 86 | 1 (ThT. Cat is 1, if Rel. ThT >2) | 1 (ThT. Cat is 1, if Rel. ThT >2) |  |  | 1 (ThT. Cat is 1, if Rel. ThT >2) | 1 (ThT. Cat is 1, if Rel. ThT >2) | 1 (ThT. Cat is 1, if Rel. ThT >2) | 1 | 1 |  |  | 1 | 1 | 1 | 1 | 
6 | EIEIQINM | 78.4 | 78.43 | 0 (ThT-inactive (N-Fold <2)) | 0 (ThT-inactive (N-Fold <2)) | 0 (ThT-inactive (N-Fold <2)) | 0 (ThT-inactive (N-Fold <2)) | 0 (ThT-inactive (N-Fold <2)) |  | 0 (ThT-inactive (N-Fold <2)) | 1 | 1 | 1 | 1 | 1 | 1 | 1 |  | 0 (ThT-inactive (N-Fold <2))
7 | EIEIQINMWQ | 89.9 | 89.92 | 1 (ThT. Cat is 1, if Rel. ThT >2) | 1 (ThT. Cat is 1, if Rel. ThT >2) |  |  | 1 (ThT. Cat is 1, if Rel. ThT >2) |  | 1 (ThT. Cat is 1, if Rel. ThT >2) | 0 | 0 |  |  | 0 | 0 | 0 | 0 | 1 (ThT. Cat is 1, if Rel. ThT >2)
8 | EIKIQINM | 50.7 | 50.72 | 1 (ThT. Cat is 1, if Rel. ThT >2) | 1 (ThT. Cat is 1, if Rel. ThT >2) | 1 (ThT. Cat is 1, if Rel. ThT >2) | 1 (ThT. Cat is 1, if Rel. ThT >2) | 1 (ThT. Cat is 1, if Rel. ThT >2) |  | 1 (ThT. Cat is 1, if Rel. ThT >2) | 1 | 1 | 1 | 1 | 1 | 1 | 1 |  | 1 (ThT. Cat is 1, if Rel. ThT >2)
9 | HHHHKIKIKIKIWWWW | 96 | 96 | 1 (ThT. Cat is 1, if Rel. ThT >2) | 1 (ThT. Cat is 1, if Rel. ThT >2) |  |  | 1 (ThT. Cat is 1, if Rel. ThT >2) | 1 (ThT. Cat is 1, if Rel. ThT >2) | 1 (ThT. Cat is 1, if Rel. ThT >2) | 0 | 0 |  |  | 0 | 0 | 0 | 0 | 
10 | HHHHKIKIQINMYYYY | 98.4 | 98.42 | 1 (ThT. Cat is 1, if Rel. ThT >2) | 1 (ThT. Cat is 1, if Rel. ThT >2) |  |  | 1 (ThT. Cat is 1, if Rel. ThT >2) | 1 (ThT. Cat is 1, if Rel. ThT >2) | 1 (ThT. Cat is 1, if Rel. ThT >2) | 1 | 1 |  |  | 1 | 1 | 1 | 1 | 

Source: paper PMC10447463, “Data-mining unveils structure–property–activity correlation of viral infectivity enhancing self-assembling peptides” (Nature Communications, 2023)
